Measurements: BindingDB's records for doi:10.1038/sj.bjp.0701860 (Universit&Aagrove, 1998)
pKi: −log10 of the molar value.

Target: Melatonin receptor type 1A (Homo sapiens, UniProt P48039)
Sequence (P48039 whole entry): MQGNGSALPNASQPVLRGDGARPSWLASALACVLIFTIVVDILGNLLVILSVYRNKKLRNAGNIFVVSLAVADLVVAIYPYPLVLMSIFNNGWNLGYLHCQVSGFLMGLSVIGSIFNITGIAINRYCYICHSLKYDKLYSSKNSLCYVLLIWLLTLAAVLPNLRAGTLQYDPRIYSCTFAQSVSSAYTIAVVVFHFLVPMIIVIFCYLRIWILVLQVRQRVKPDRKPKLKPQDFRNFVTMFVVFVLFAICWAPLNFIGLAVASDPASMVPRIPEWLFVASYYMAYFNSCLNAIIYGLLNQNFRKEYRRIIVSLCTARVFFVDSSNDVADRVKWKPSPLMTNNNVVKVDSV

SMILES | pKi
COc1ccc2[nH]c(-c3ccccc3)c(CCNC(C)=O)c2c1 [Melatonin,2-Phenyl] | 10.70
CC(=O)n1cc(CCN)c2cc(O)ccc21 [NSC_260803] | 6.32
